Common to all, as to experiment: DTP human tumour cell line panel, 48 h
Assay [1] relates to IGROV-1.
Assay [2] deals with SNB-19.
The subject of assay [3] is SK-MEL-2.
Assay [4] has as its system Malme-3M.
The subject of assay [5] is RXF 393.
The test system of assay [6] is HOP-92.
Assay [7] has as its system UACC-257.
The test system of assay [8] is MOLT-4.
The subject of assay [9] is SK-MEL-28.
Assay [10] concerns OVCAR-8.
The subject of assay [11] is OVCAR-3.
In assay [12] the test system is EKVX.
The test system of assay [13] is HOP-62.
The test system of assay [14] is NCI-H460.
In assay [15] the test system is U-251.
Assay [16] has as its system SNB-75.
Assay [17] relates to M14.
In assay [18] the test system is HL-60.
Assay [19] has as its system CCRF-CEM.
Assay [20] relates to SR.

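Following 48 hours of exposure in 96-well plates, responses at five concentrations were used to interpolate endpoints linearly. GI50 is the concentration that inhibits growth by half.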 Calls of active or inactive are those of the source. Cut-off read from the data, not from the text of the source: active = GI50 up to about 1.1 µM and inactive = higher. A value given as a limit tells only on which side of the number the result lay.

By GI50 is commonly meant the concentration that inhibits growth by half. Consider `C[C@]12CC/C(=N\O)C=C1CC[C@@H]1C2CC[C@@]2(C)C1CC[C@@H]2OC1CCCCO1` (some centres undefined), for which the GI50 in [1] is 35.6 µM (inactive); in [2], 18.3 µM (inactive); in [3] it was 16.7 µM (inactive); in [4], 21.9 µM (inactive); in assay [5] it was 25.4 µM (inactive); in [6] it was 17.7 µM (inactive). The GI50 was 20.4 µM (inactive) in assay [7]; 12.4 µM (inactive) in assay [8]; 22.7 µM (inactive) in [9]; > 100 µM (inactive) in assay [10]; 16.9 µM (inactive) in assay [11]; 17.7 µM (inactive) in assay [12]. In addition, the GI50 is 31.2 µM (inactive) in [13]; 20.4 µM (inactive) in [14]; 17.9 µM (inactive) in assay [15]; 18.9 µM (inactive) in [16]; 18.3 µM (inactive) in assay [17].
As to `C[C@H](NC(=O)C(Cc1ccccc1)(Cc1ccc(O)cn1)NC(=O)c1ccccc1)c1ccccc1` (some centres undefined), the GI50 in assay [1] is 16.3 µM (inactive); in assay [2], 18.8 µM (inactive); in [3], 14.2 µM (inactive); in assay [4], 17.5 µM (inactive); in [5], 14.3 µM (inactive); in assay [6], 21.3 µM (inactive). For the same compound, the GI50 is 25.1 µM (inactive) in assay [18]; 17.7 µM (inactive) in [7]; 16.9 µM (inactive) in assay [8]; 18.5 µM (inactive) in [9]; 20.4 µM (inactive) in [10]; 14.7 µM (inactive) in assay [11]. Further, the GI50 in assay [12] is 14.7 µM (inactive); in [13], 17.9 µM (inactive); in assay [15], 15.3 µM (inactive); in assay [19] it was 30.5 µM (inactive); in assay [17] it was 15.3 µM (inactive).
Consider `C[C@@H](NC1CCC[C@@H]1O)c1ccccc1` (some centres undefined), for which the GI50 in assay [1], in assay [2], in assay [3], in assay [4], in [5] and in assay [6] was > 100 µM (inactive) each time. In addition, the GI50 in [18], in assay [7], in assay [8], in assay [9], in assay [10] and in assay [11] was > 100 µM (inactive) throughout. In addition, the GI50 in [12], in [13], in assay [14], in assay [15], in assay [16] and in [19] was > 100 µM (inactive) each time. For the same compound, in assay [17], the GI50 is > 100 µM (inactive).
For `CCOC(=O)CC1=Nc2ccccc2SC1`, the GI50 in [1], in assay [2], in assay [3], in assay [4], in assay [5] and in [6] was > 100 µM (inactive) in each case. In addition, the GI50 was > 100 µM (inactive) in assay [7]; > 100 µM (inactive) in assay [8]; 1.29 µM (inactive) in [9]; > 100 µM (inactive) in [10]; > 100 µM (inactive) in assay [11]; > 100 µM (inactive) in assay [12]. Further, the GI50 in assay [13], in [14], in assay [15], in assay [16] and in [17] was > 100 µM (inactive) throughout.
For the compound `CCOC1=NC(=O)CC(c2ccccc2)S1` (centres undefined), the GI50 was > 100 µM (inactive) in [1]; > 100 µM (inactive) in [2]; > 100 µM (inactive) in assay [3]; > 100 µM (inactive) in [4]; 36.4 µM (inactive) in assay [5]; > 100 µM (inactive) in assay [6]. In addition, the GI50 in [18], in assay [7], in assay [8], in assay [10], in assay [11] and in assay [12] was > 100 µM (inactive) throughout. In addition, the GI50 in [14] is > 100 µM (inactive); in [15] it was 49.2 µM (inactive); in assay [19], 69.3 µM (inactive); in [17], 68.1 µM (inactive).
With `O=C(N/N=C(COc1cccc(Cl)c1)\N=C\c1ccncc1)c1ccncc1`, the GI50 in assay [1] is > 100 µM (inactive); in assay [2], > 100 µM (inactive); in [3] it was > 100 µM (inactive); in [4], > 100 µM (inactive); in [5], 36.4 µM (inactive); in assay [6] it was 35.6 µM (inactive). Besides, the GI50 in assay [18], in assay [7], in assay [8], in assay [9], in assay [10] and in [11] was > 100 µM (inactive) in each case. Also, the GI50 in [12], in [13], in [14], in assay [15], in [19] and in assay [17] was > 100 µM (inactive) throughout.
Regarding `CC1=NNC(=O)C1C1CC(c2c[nH]c3ccccc23)=NNC1=S` (centres undefined), the GI50 was > 100 µM (inactive) in [2]; > 100 µM (inactive) in assay [3]; > 100 µM (inactive) in [4]; > 100 µM (inactive) in assay [5]; > 100 µM (inactive) in assay [6]; 68.4 µM (inactive) in assay [18]. Besides, the GI50 was > 100 µM (inactive) in [7]; 37.2 µM (inactive) in [8]; > 100 µM (inactive) in assay [9]; > 100 µM (inactive) in assay [10]; > 100 µM (inactive) in [11]; 28.4 µM (inactive) in assay [12]. The GI50 in assay [13] was > 100 µM (inactive); in [14], 68.5 µM (inactive); in assay [15], > 100 µM (inactive); in assay [16] it was > 100 µM (inactive); in assay [19] it was 28.6 µM (inactive); in [17], > 100 µM (inactive).
For the compound `CSc1c([S+](C)[O-])[nH]c2cc(Br)cc(Br)c12` (centres undefined), the GI50 is 37.1 µM (inactive) in assay [1]; 24.9 µM (inactive) in assay [4]; 14 µM (inactive) in [5]; 10.9 µM (inactive) in assay [6]; 21.3 µM (inactive) in assay [18]; 33.3 µM (inactive) in [7]. The GI50 was 18.1 µM (inactive) in assay [8]; 20.7 µM (inactive) in assay [9]; 22 µM (inactive) in [10]; 20.6 µM (inactive) in [11]; 14.3 µM (inactive) in assay [12]; 16.7 µM (inactive) in assay [14]. Further, the GI50 is 0.0376 µM (active) in [15], 17.3 µM (inactive) in [16], 22.2 µM (inactive) in assay [19] and 25.6 µM (inactive) in [17].
Regarding `CCC1(CC)C(=O)OC(=O)C1(CC)CC`, the GI50 in assay [1], in [2], in [3], in [18], in assay [8] and in assay [9] was > 100 µM (inactive) throughout. For the same compound, the GI50 in assay [10], in assay [11], in [20], in assay [12], in [13] and in assay [14] was > 100 µM (inactive) each time. Besides, the GI50 in assay [15], in assay [16], in assay [19] and in [17] was > 100 µM (inactive) throughout.
For `COC(=O)/C(=N\Nc1nc(S)nn1N)C(C#N)c1ccc(Cl)cc1` (centres undefined), the GI50 in assay [1], in assay [2], in [3], in assay [4], in assay [5] and in assay [6] was > 100 µM (inactive) each time. Besides, the GI50 in [7], in assay [9], in assay [10], in assay [11], in assay [12] and in assay [13] was > 100 µM (inactive) in each case. Besides, the GI50 in assay [14], in assay [15], in assay [16] and in assay [17] was > 100 µM (inactive) throughout.
Regarding `COC(=O)/C(C#N)=C1\CCC(Nc2cccc(C(F)(F)F)c2)N1C` (centres undefined), the GI50 in assay [1] is > 100 µM (inactive); in assay [2], > 100 µM (inactive); in [3] it was > 100 µM (inactive); in [4], > 100 µM (inactive); in assay [5], 46.1 µM (inactive); in [18], 61.7 µM (inactive). The GI50 in assay [7] was > 100 µM (inactive); in assay [8], 51.6 µM (inactive); in assay [9], > 100 µM (inactive); in [10], > 100 µM (inactive); in assay [11], > 100 µM (inactive); in assay [12], > 100 µM (inactive). Besides, the GI50 in [13] was > 100 µM (inactive); in assay [14], > 100 µM (inactive); in [15], > 100 µM (inactive); in assay [16], 43.3 µM (inactive); in assay [19] it was > 100 µM (inactive); in [17], > 100 µM (inactive).
Take `CCCCCCCCCC(=O)NC(Cc1ccc(O)cc1)C(=O)NCCCNCCCCNCCCNC(=O)[C@@H](N)CCCN=C(N)N` (some centres undefined): the GI50 was 17.9 µM (inactive) in [1]; 70.1 µM (inactive) in assay [2]; 20.4 µM (inactive) in [4]; 16.2 µM (inactive) in assay [18]; 44.5 µM (inactive) in [7]; > 100 µM (inactive) in assay [8]. Besides, the GI50 is 19.2 µM (inactive) in assay [9]; 33.6 µM (inactive) in assay [10]; > 100 µM (inactive) in [11]; 73.3 µM (inactive) in assay [20]; 30.1 µM (inactive) in [12]; 22.9 µM (inactive) in [13]. Further, the GI50 was 15.5 µM (inactive) in [14], > 10 µM (inactive) in assay [15], 84.9 µM (inactive) in [19] and > 100 µM (inactive) in assay [17].
